Assay results taken from ChEMBL document CHEMBL5665440, “ASAP - In vitro liver microsomal stability” (2024).

Assay: Human liver microsomal stability of compound in microsomal protein, PBS buffer pH 7.4, NADPH, glucose-6-phosphate and glucose-6-phosphate dehydrogenase media. Aliquotes were taken at 5 time points and after stopping the reaction, supernatants were analyzed using HPLC coupled with a tandem mass spectrometer. The elimination constant, half-life, and intrinsic clearance are determined as results using linear regression analysis.
Type: ADME, microsomes, Microsome
Settings: for half-life / microsomal CLint: liver microsomes; for Remaining / Remaining (without cofactor): microsomes
Wherever Remaining (without cofactor) is given: time not given here.
Wherever Remaining is given: time not given here.

Compound	half-life [h]	microsomal CLint [µL/min/mg]	Remaining [%]	Remaining (without cofactor) [%]
Clc1ccc2[nH]cc(Cc3ccc(-c4nn[nH]n4)cc3)c2c1	> 2.89	< 10	98.893	98.069
CC(C)NC(=O)[C@H](Nc1ccc2c(c1)CNC2)c1cc(Cl)cc2[nH]ncc12	> 2.89	< 10	91.546	107.23
O=C(Nc1ccc2c(c1)CNC2)c1cc(Cl)cc2c1CCC2	> 2.89	< 10	85.255	101.935
C=CC[C@H](Nc1ccc(-c2nn[nH]n2)cc1)c1cc(Cl)cc(NC(=O)OCc2ccccc2)c1	2.77	10.1	84.591	100.465
O=C(Nc1cc(Cl)cc([C@H]2CN(Cc3ccccc3)C[C@@H]2c2cccc(-c3nn[nH]n3)c2)c1)OCc1ccccc1	0.601	46.3	46.707	96.205
O=C(Nc1cc(Cl)cc(C(=O)Nc2ccc3c(c2)CNC3)c1)OCc1ccccc1	2.19	12.7	81.215	98.946
CNC(=O)[C@H](Nc1ccc(-c2nnn[nH]2)cc1)c1cc(Cl)cc(C2CC2)c1	> 2.89	< 10	90.289	100.18
O=C(Nc1cc(Cl)cc([C@H](Nc2cccc(-c3nn[nH]n3)c2)C(=O)NCc2ccccc2)c1)OCc1ccccc1	> 2.89	< 10	93.548	99.519
O=C(Nc1cc(Cl)cc(C(=O)Nc2cccc(C3CCNCC3)c2)c1)OCc1ccccc1	> 2.89	< 10	91.016	98.201
O=C(N[C@H]1[C@H]2CCCCC[C@H]2[C@H]1C(=O)Nc1cccc(C2CCNCC2)c1)OCc1ccccc1	0.89	31.3	58.639	103.638
O=C(O)c1cc(Cl)ccc1NS(=O)(=O)c1ccc(-c2ccccc2Cl)cc1	0.0813	343	0.295	109.106
CNC(=O)[C@H](Nc1cccc(-c2nn[nH]n2)c1)c1cc(Cl)cc2[nH]ncc12	> 2.89	< 10	97.01	105.868
O=C(O)Cn1ncc2cc(-c3cc(Cl)cc(NC(=O)OCc4ccccc4)c3)ccc21	> 2.89	< 10	101.103	100.106
CCOc1cccc(-c2ccc(S(=O)(=O)Nc3ccc(Cl)cc3C(=O)O)cc2)c1	0.233	119	15.029	93.83
NCCc1ccc(NC(=O)c2cc(Cl)cc(NC(=O)OCc3ccccc3)c2)cc1	1.59	17.5	76.258	74.637
NCc1cc(C(=O)O)cc([C@@H]2C[C@H]2c2cc(Cl)cc(NC(=O)OCc3ccccc3)c2)c1	> 2.89	< 10	89.704	102.436
O=C(Nc1cc(Cl)cc(C(=O)Nc2n[nH]c3c2CNC3)c1)OCc1ccccc1	> 2.89	< 10	100.832	95.38
c1ccc2sc(C3CCN(Cc4c[nH]c5ccccc45)CC3)nc2c1	0.73	38.1	53.75	101.907
CNC(=O)[C@H](Nc1cc(CN)cc(C(=O)O)c1)c1cc(Cl)cc(C2CC2)c1	> 2.89	< 10	98.4	103.999
CC(C)CNC(=O)c1cc(Cl)c(F)cc1NS(=O)(=O)c1ccc(Oc2ccccc2Cl)cc1	0.14	198	4	98
Cc1cc(OCc2ccccc2)ccc1NS(=O)(=O)c1ccc(Cl)cc1C(=O)O	1.25	22.3	70.445	101.396
CNC(=O)[C@H](Nc1cc(Cl)cc(NC(=O)OCc2ccccc2)c1)c1cccc(-c2nn[nH]n2)c1	1.31	21.3	70.065	102.307
O=C(NCC(F)(F)F)c1cc(Cl)c(F)cc1NS(=O)(=O)c1ccc(Oc2ccccc2Cl)cc1	0.4	70	33	104
c1ccc2c(CN3CCC(c4c[nH]c5cccnc45)CC3)c[nH]c2c1	1.69	16	78.186	103.226
O=C(O)c1cc(Cl)c(F)cc1S(=O)(=O)Nc1ccc(Oc2ccccc2Cl)cc1	0.413	67.4	33.369	97.65
C=CC[C@H](Nc1cccc(-c2nn[nH]n2)c1)c1cc(Cl)cc(NC(=O)OCc2ccccc2)c1	0.425	65.5	34.146	93.066
N#C[C@H](Nc1cccc(C(=O)O)c1)c1cc(Cl)cc2[nH]ncc12	2.33	12	81.554	89.628
O=C(O)c1cc(Cl)ccc1S(=O)(=O)NC1CCN(c2nc(C3CC3)cc(C(F)(F)F)n2)CC1	1.06	26.3	62.456	103.505

Now from value to compound:

half-life [h]	microsomal CLint [µL/min/mg]	Remaining [%]	Remaining (without cofactor) [%]	Compound
> 2.89	< 10	83.745	108.267	Cn1ncc2c(C(=O)Nc3ccc4c(c3)CNC4)cc(Br)cc21
2.44	11.4	87.168	92.769	NCc1cccc([C@@H]2C[C@H]2c2cc(Cl)cc(NC(=O)OCc3ccccc3)c2)c1
5.26	5.29	90.368	108.836	NCc1cccc(NC(=O)[C@@H](NC(=O)OCc2ccccc2)C2CCCCC2)c1
2.04	13.6	82.243	110.789	N#C[C@H](Nc1cccc(-c2nn[nH]n2)c1)c1cc(Cl)cc(NC(=O)OCc2ccccc2)c1
1.64	17	76.547	105.768	NCc1cccc(NC(=O)C[C@@H](NC(=O)OCc2ccccc2)c2ccc(OCc3ccccc3)cc2)c1
> 2.89	< 10	98.934	109.497	O=C(O)COc1cccc(NC(=O)c2cc(Cl)cc(NC(=O)OCc3ccccc3)c2)c1
1.33	21	124.297	104.813	NCc1cccc(NC(=O)c2cc(Cl)cc(CN)c2)c1
> 2.89	< 10	98.243	100.684	NCc1cccc(NC(=O)c2cccn3cc(CN4CCCC4)nc23)c1
2.21	12.6	77.895	94.537	NCc1cccc(NC(=O)[C@@H](NC(=O)OCc2ccccc2)C(C2CCC2)C2CCC2)c1
> 2.89	< 10	92.268	98.779	O=C(Nc1cc(Cl)cc(-c2ccc3[nH]c(C(=O)O)cc3c2)c1)OCc1ccccc1
> 2.89	< 10	88.987	100.499	O=C(Nc1cc(Cl)cc(C(=O)Nc2cccc(-c3nnn[nH]3)c2)c1)OCc1ccccc1
> 2.89	< 10	93.647	102.839	NCc1cccc(NC(=O)c2cc(Cl)cc(NC(=O)OCc3ccccc3)c2)c1
> 2.89	< 10	114.72	98.952	CCc1cc(C(=O)Nc2cccc(CN)c2)sc1-c1ccc(Cl)cc1
1.12	24.9	66.587	100.68	CC[C@@H](Cc1nnn[nH]1)c1ccc(NC(=O)c2cc(Cl)cc(NC(=O)OCc3ccccc3)c2)cc1
2.6	11	83	101	NCc1cccc(NC(=O)CN(C(=O)OCc2ccccc2)c2ccc(OCc3ccccc3)cc2)c1
1.31	21	69	103	NCc1cccc(NC(=O)c2cc(OCc3ccccc3)ccc2CNC(=O)OCc2ccccc2)c1
0.943	29.5	62.909	101.077	Cc1cc(-c2ccc([C@@H](NC(=O)OCc3ccccc3)C(=O)Nc3cccc(CN)c3)cc2)cs1
> 2.89	< 10	88.403	97.11	Cc1ccc(NC(=O)c2cc(Cl)cc(NC(=O)OCc3ccccc3)c2)cc1CN
> 2.89	< 10	101.28	99.543	CC(C)c1nc2c(C(=O)Nc3cccc(CN)c3)cccc2[nH]1
2.48	11.2	81.771	105.363	O=C(Nc1cc(Cl)cc(C(=O)Nc2cccc(-n3nn[nH]c3=O)c2)c1)OCc1ccccc1
